Measured values: patent US20250073230A1, “USE OF PLINABULIN IN COMBINATION WITH IMMUNE CHECKPOINT INHIBITORS” (BeyondSpring Pharmaceuticals, Inc., priority 2015, published 2025)
“Also recorded” adds a separate entry of the source.

Columns and labels:
[1] = system: MC-38 tumor cells; assay: MC-38 tumor model, Plinabulin with PD-1 antibody and CTLA-4 antibody (Example 7); format: in vivo, mice; conditions: Example 7, FIG. 4B; six treatment groups
Experimental: The combined treatment with Plinabulin and a PD-1 checkpoint inhibitor in combination with a CTLA-4 checkpoint inhibitor was tested in comparison with the treatment with Plinabulin alone, the treatment with PD-1 antibody alone, or the treatment with PD-1 antibody in combination with CTLA-4 antibody. The tests were performed using seven to ten-week old mice that were injected subcutaneously with MC-38 tumor cells. Six testing groups were prepared, and each group included 10 mice. Group 1 was administered with IgG2a and plinabulin vehicle; Group 2 was administered with Plinabulin dissolved in diluent at a concentration of 7.5 mg/kg; Group 3 was administered with PD-1 antibody; Group 4 was administered with a Plinabulin/PD-1 antibody combined treatment; Group 5 was administered combined PD-1/CTLA-4 antibodies; and Group 6 was administered combined PD-1 antibody/CTLA-4 antibody/Plinabulin treatment. For the Plinabulin/PD-1 antibody combined treatment (Group 4) and the Plinabulin/PD-1/CTLA-4 antibody treatment (Group 6), the mice were administered twice per week (Day 1 and Day 4 of each week) with Plinabulin (7.5 mg/kg) that was dissolved in diluent, followed by administering antibody (ies) one hour after each Plinabulin administration. […] At necropsy the tissues were weighed and subjected to FACS analysis.

[2] = system: SP37A3 DCs; assay: DC viability (SytoxGreen staining); format: cell-based, mouse; conditions: FIG. 1B, 0.001-10 μM, 20 h
[3] = system: SP37A3 DCs; assay: Production of pro-inflammatory cytokines by DCs (ELISA of supernatants); format: cell-based, mouse; conditions: Example 2, FIG. 3A-3C, 20 h
Experimental: Two other cancer drugs, Paclitaxel and Etoposide, were also tested to compare their effects on DC maturation with Plinabulin. SP37A3 DCs (murine DC line, Merck) were plated (8×10^4 cells/well, 96-well flat bottom, tissue-culture treated) in 180 uL IMDM complete medium [IMDM medium (Sigma) supplemented with 10% heat-inactivated and endotoxin-tested FBS (PAA), sodium pyruvate (Gibco), penicillin/streptomycin L-glutamine mix (Gibco), MEM nonessential amino acids (Sigma) and 0.05 mM 2-mercaptoethanol (Gibco)]. IMDM complete medium was supplemented with 20 ng/mL recombinant mouse GM-CSF. DCs were allowed to adhere for two hours before Plinabulin, Paclitaxel, Etoposide, medium, or LPS (positive control) were added 10× concentrated in 20 uL. […] Cells were analyzed using a BD Fortessa Cytometer equipped with DIVA software. Mean fluorescence intensity (MFI) of the DC maturation markers CD40 (FIG. 2A), CD80 (FIG. 2B), CD86 (FIG. 2C) and MHCII (FIG. 2D) in live cells was normalized to the MFI of those markers detected in untreated (medium) DCs. The production of the pro-inflammatory cytokines IL-1β(FIG. 3A), IL-6 (FIG. 3B), and IL-12p40 (FIG. 3C) were also determined by ELISA.

[4] = system: MC-38 tumor cells; assay: FACS analysis of the tumors at necropsy, MC-38 CRC tumor model (Example 7); format: in vivo, mice
Experimental: The combined treatment with Plinabulin and a PD-1 checkpoint inhibitor in combination with a CTLA-4 checkpoint inhibitor was tested in comparison with the treatment with Plinabulin alone, the treatment with PD-1 antibody alone, or the treatment with PD-1 antibody in combination with CTLA-4 antibody. The tests were performed using seven to ten-week old mice that were injected subcutaneously with MC-38 tumor cells. Six testing groups were prepared, and each group included 10 mice.
Group 1 was administered with IgG2a and plinabulin vehicle; Group 2 was administered with Plinabulin dissolved in diluent at a concentration of 7.5 mg/kg; Group 3 was administered with PD-1 antibody; Group 4 was administered with a Plinabulin/PD-1 antibody combined treatment; Group 5 was administered combined PD-1/CTLA-4 antibodies; and Group 6 was administered combined PD-1 antibody/CTLA-4 antibody/Plinabulin treatment. For the Plinabulin/PD-1 antibody combined treatment (Group 4) and the Plinabulin/PD-1/CTLA-4 antibody treatment (Group 6), the mice were administered twice per week (Day 1 and Day 4 of each week) with Plinabulin (7.5 mg/kg) that was dissolved in diluent, followed by administering antibody (ies) one hour after each Plinabulin administration. For the Plinabulin only treatment (Group 2) or the antibody (ies) only treatment (Groups 3 and 5), mice were administered Plinabulin (7.5 mg/kg dissolved in diluent) or antibody (ies) alone twice per week (Day 1 and Day 4 of each week).
Each treatment started at tumor size of around 125 mm^3 and continued until tumor size of 3000 mm^3 was reached. […] To determine the efficacy of each treatment, the following data were collected: mortality rate prior to tumor size reaching 3000 mm^3; the body weight of the mice assessed twice weekly both prior to treatments; the rate of tumor growth as determined by the tumor size measurement (twice every week); the tumor growth index; overall survival rate; the tumor weight at necropsy; and the time required to increase tumor size 10 fold. […]

[5] = system: SP37A3 DCs; assay: Expression of DC maturation markers CD40, CD80, CD86 and MHCII by flow cytometry; format: cell-based, mouse; conditions: 0.001-10 μM, 20 h
Experimental: Cell lines: The immature mouse DC cell line SP37A3 (provided by Merck KGaA) was cultured in Iscove's Modified Dulbecco's Medium (IMDM; Sigma) supplemented with 10% heat-inactivated and endotoxin-tested FBS (PAA), sodium pyruvate (Gibco), penicillin/streptomycin L-glutamine mix (Gibco), Eagle's Minimum Essential Medium (MEM) nonessential amino acids (Sigma), Ciproxin (Bayer), and 0.05 mmol/L 2-mercaptoethanol (Gibco). IMDM complete medium was supplemented with 20 ng/mL recombinant mouse GM-CSF and 20 ng/mL recombinant mouse M-CSF (both Peprotech). The murine tumor cell lines EG7 and 3LL-OVA were obtained from ATCC or provided by Douglas T. Fearon (Cancer Research UK Cambridge Institute, Li Ka Shing Centre, University of Cambridge, Cambridge, UK), respectively. All cell lines were tested and validated to be Mycoplasma-free. Expression of OVA in EG7 and 3LL-OVA, and of Thy1.1 in RMAThy1.1, respectively, was confirmed; no genomic authentication was performed.
SP37A3 DCs (murine DC line, Merck) were plated (8×10^4 cells/well, 96-well flat bottom, tissue-culture treated) in 180 uL IMDM complete medium [IMDM medium (Sigma) supplemented with 10% heat-inactivated and endotoxin-tested FBS (PAA), sodium pyruvate (Gibco), penicillin/streptomycin L-glutamine mix (Gibco), MEM nonessential amino acids (Sigma) and 0.05 mM 2-mercaptoethanol (Gibco)]. IMDM complete medium was supplemented with 20 ng/mL recombinant mouse GM-CSF. DCs were allowed to adhere for two hours before Plinabulin, medium, or LPS as controls were added 10× concentrated in 20 uL. DCs were incubated with Plinabulin in various concentrations (0.001 μM, 0.01 μM, 0.1 μM, 1 μM, 10 μM), medium, and LPS respectively for 20 h. Supernatants of these cultures were collected and used for detection of cytokine production by ELISA (kits available from BD) and the cells were stained with the LD-IR viability dye (Invitrogen) as well as with fluorochrom-labeled monoclonal antibodies against CD80, CD86, CD40 and MHCII for flow cytometric analysis. Cells were analyzed using a BD Fortessa Cytometer equipped with DIVA software. Mean fluorescence intensity (MFI) of the DC maturation markers CD40, CD80, CD86 and MHCII in live cells was normalized to the MFI of those markers detected in untreated (medium) DCs.
Two other cancer drugs, Paclitaxel and Etoposide, were also tested to compare their effects on DC maturation with Plinabulin. […] Cells were analyzed using a BD Fortessa Cytometer equipped with DIVA software. Mean fluorescence intensity (MFI) of the DC maturation markers CD40 (FIG. 2A), CD80 (FIG. 2B), CD86 (FIG. 2C) and MHCII (FIG. 2D) in live cells was normalized to the MFI of those markers detected in untreated (medium) DCs. […]

## CC(C)(C)c1[nH]cnc1/C=c1\[nH]c(=O)/c(=C/c2ccccc2)[nH]c1=O [Plinabulin, (3Z,6Z)-3-Benzylidene-6-{[5-(2-methyl-2-propanyl)-1H-imidazol-4-yl]methylene}-2,5-piperazinedione]
[1]
  mean tumor weight at necropsy: decreased tumor weight at necropsy
[2]
  DC viability: did not change significantly
[3]
  production of IL1b, IL6 and IL12 (IL-12p40) compared with Paclitaxel, Etoposide and LPS: increased production of IL1b, IL6, and IL12
[4]; FIG. 5A, vs comparator group without plinabulin
  percentage of Treg cells in tumor: reduction in % Treg cells; also recorded: decreased percentage of Regulatory T cells
[4]; FIG. 5B
  ratio of CD8+ cells to Treg cells in tumor: increase in the ratio of CD8+/Treg cells
[4]; FIG. 5C, vs respective comparator groups
  percentage of macrophages in CD45+ lymphocytes in tumor: decreased percentage of macrophage stained cells
[5]; Example 1, FIG. 1A
  expression of DC maturation markers CD40, CD80, CD86 and MHCII (MFI normalized to untreated DCs): significantly increased expression of all four DC maturation markers
[5]; Example 2, FIG. 2A-2D
  expression of DC maturation markers CD40, CD80, MHCII and CD86 compared with Paclitaxel and Etoposide: much greater expression of all four DC maturation markers
  expression of DC maturation markers compared with positive control LPS: significantly increased expression of all four markers
[5]; Example 2
  induction of DC maturation, rank among Plinabulin, Paclitaxel and Etoposide: most potent inducer of DC maturation among all three drugs
